{"source": "paper PMC10485003", "about": "“Antibiotic hyper-resistance in a class I aminoacyl-tRNA synthetase with altered active site signature motif” (Nature Communications, 2023)", "key": {"IleRS1": {"target": "IleRS1", "set-up": "method as in PMID 6258580, PMID 9822630", "conditions": "type 1 proteins strongly inhibited; cited from earlier work"}, "wt-HVGH TtIleRS2": {"target": "T1, wt-HVGH TtIleRS2 (Thermus thermophilus, UniProt P56690)", "T1 construct": "hexa-histidine tag (pET28b(+)) (N); made in house; host or cells: E. coli Rosetta2 (DE3)", "T1 sequence (P56690 1-1043)": "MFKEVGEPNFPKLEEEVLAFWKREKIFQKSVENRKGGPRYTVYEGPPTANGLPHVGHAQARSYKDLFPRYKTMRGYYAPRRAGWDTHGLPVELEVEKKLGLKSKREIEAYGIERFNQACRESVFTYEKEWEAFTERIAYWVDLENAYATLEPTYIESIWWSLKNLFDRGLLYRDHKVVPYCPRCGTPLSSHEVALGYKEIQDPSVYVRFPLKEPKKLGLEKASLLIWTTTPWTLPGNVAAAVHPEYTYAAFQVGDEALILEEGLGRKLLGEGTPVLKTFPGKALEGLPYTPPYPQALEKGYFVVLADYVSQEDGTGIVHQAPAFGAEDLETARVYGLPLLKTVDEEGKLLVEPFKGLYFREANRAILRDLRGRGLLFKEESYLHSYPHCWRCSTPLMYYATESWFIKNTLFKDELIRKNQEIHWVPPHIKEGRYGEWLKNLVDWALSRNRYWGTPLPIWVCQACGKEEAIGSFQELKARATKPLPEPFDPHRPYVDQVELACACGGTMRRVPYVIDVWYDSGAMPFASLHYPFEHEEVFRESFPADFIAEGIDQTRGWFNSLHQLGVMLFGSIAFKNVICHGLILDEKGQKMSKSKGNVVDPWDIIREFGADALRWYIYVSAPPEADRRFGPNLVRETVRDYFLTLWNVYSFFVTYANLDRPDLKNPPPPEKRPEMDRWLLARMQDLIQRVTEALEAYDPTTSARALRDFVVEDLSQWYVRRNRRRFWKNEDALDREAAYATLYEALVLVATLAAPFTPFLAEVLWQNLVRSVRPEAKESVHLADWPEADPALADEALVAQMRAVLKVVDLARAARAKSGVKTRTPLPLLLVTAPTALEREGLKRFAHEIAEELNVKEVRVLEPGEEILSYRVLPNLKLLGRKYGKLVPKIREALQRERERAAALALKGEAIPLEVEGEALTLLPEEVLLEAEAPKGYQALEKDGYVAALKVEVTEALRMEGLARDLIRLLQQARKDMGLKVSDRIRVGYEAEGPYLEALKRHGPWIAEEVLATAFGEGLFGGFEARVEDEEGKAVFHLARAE", "assay": "ATP-PPi exchange assay, mupirocin inhibition of amino acid activation", "assay_type": "biochemical", "protocol": "L-Ile and ATP concentrations ranged from 1/10 KM to 10 KM values. When measuring the KI towards one of the substrates, the other was held in saturation (concentrations at least 10 KM). The aliquots of the reaction mixture (1–2.5 μl) were quenched in 2 volumes of 500 mM NaOAc pH = 4.5, 0.1% SDS, and formed ^32P-ATP was separated from the remaining ^32P-PPi by thin-layer chromatography on Polygram CEL 300 PEI UV254 TLC plates (Macherey-Nagel, cat: 801063) using 750 mM KH2PO4 pH=3.5, 4 M urea buffer. Visualization and quantification of the signals was performed using a Typhoon Phosphoimager 5 (General Electric) and accompanying ImageQuant™ TL software (SV: 10.2). The kinetic constants were determined using a global fit option of the competitive inhibition model of GraphPad Prism 6 software (SV: 6.01). All experiments were performed in triplicates. The kcat was determined by dividing the maximal velocity, VM, with the used enzyme concentration. […]\nvariable substrate (ATP or Ile) was varied in the range of 0.1 KM to 10 KM. The other substrate (Ile or ATP) was kept in excess at 5 to 10 KM. Data were globally fitted to the competitive inhibition model using GraphPad prism 6.01 for Windows software. The values represent the average value ± SD of three independent experiments. Source data are provided as a Source Data file."}}, "note": "“And” between values parts separate entries of the source, which are not always exact repeats. Identical values can stand only once.", "data": [{"smiles": "C/C(=C\\C(=O)OCCCCCCCCC(=O)O)C[C@@H]1OC[C@H](C[C@@H]2O[C@H]2[C@@H](C)[C@H](C)O)[C@@H](O)[C@H]1O", "note": "[mupirocin]", "values": [{"measurement": "Ki", "setting": "IleRS1", "value": "low nanomolar range"}, {"measurement": "Ki", "setting": "wt-HVGH TtIleRS2; KI (MUP)ATP, amino acid activation assay, ATP as variable substrate, average ± SD of three independent experiments", "value": "200 ± 10", "unit": "nM"}, {"measurement": "Ki", "setting": "wt-HVGH TtIleRS2; KI (MUP)Ile, amino acid activation step, ATP/PPi exchange assay, Ile varied, ATP saturating, average ± SD of three independent experiments", "value": "200 ± 10", "unit": "nM"}, {"measurement": "Ki", "setting": "wt-HVGH TtIleRS2; KI, single replicates, mupirocin inhibition towards Ile, GraphPad Prism output, Repl1-Repl3", "value": "190 nM and 200 nM (3×)"}, {"measurement": "initial velocity vo", "setting": "wt-HVGH TtIleRS2; c(mupirocin) 0.25 μM, c(ATP) 0.5 mM", "value": "0.00545 mM/min and 0.00625 mM/min and 0.00878 mM/min"}, {"measurement": "initial velocity vo", "setting": "wt-HVGH TtIleRS2; c(mupirocin) 0.25 μM, c(ATP) 1.0 mM", "value": "0.00989 mM/min and 0.00933 mM/min and 0.0106 mM/min"}, {"measurement": "initial velocity vo", "setting": "wt-HVGH TtIleRS2; c(mupirocin) 0.25 μM, c(ATP) 2.5 mM", "value": "0.01904 mM/min and 0.0219 mM/min and 0.02129 mM/min"}, {"measurement": "initial velocity vo", "setting": "wt-HVGH TtIleRS2; c(mupirocin) 0.25 μM, c(ATP) 5.0 mM", "value": "0.03233 mM/min and 0.03269 mM/min and 0.0316 mM/min"}, {"measurement": "initial velocity vo", "setting": "wt-HVGH TtIleRS2; c(mupirocin) 0.25 μM, c(ATP) 10.0 mM", "value": "0.04434 mM/min and 0.04682 mM/min and 0.04511 mM/min"}, {"measurement": "initial velocity vo", "setting": "wt-HVGH TtIleRS2; c(mupirocin) 0.25 μM, c(ATP) 15.0 mM", "value": "0.0472 mM/min and 0.05017 mM/min and 0.05086 mM/min"}, {"measurement": "initial velocity vo", "setting": "wt-HVGH TtIleRS2; c(mupirocin) 0.25 μM, c(Ile) 5.0 μM", "value": "0.00612 mM/min and 0.00672 mM/min and 0.00733 mM/min"}, {"measurement": "initial velocity vo", "setting": "wt-HVGH TtIleRS2; c(mupirocin) 0.25 μM, c(Ile) 15.0 μM", "value": "0.0169 mM/min and 0.01596 mM/min"}, {"measurement": "initial velocity vo", "setting": "wt-HVGH TtIleRS2; c(mupirocin) 0.5 μM, c(ATP) 0.5 mM", "value": "0.00322 mM/min and 0.00373 mM/min and 0.00334 mM/min"}, {"measurement": "initial velocity vo", "setting": "wt-HVGH TtIleRS2; c(mupirocin) 0.5 μM, c(ATP) 1.0 mM", "value": "0.00754 mM/min and 0.00751 mM/min and 0.00747 mM/min"}, {"measurement": "initial velocity vo", "setting": "wt-HVGH TtIleRS2; c(mupirocin) 0.5 μM, c(ATP) 2.5 mM", "value": "0.01415 mM/min and 0.01653 mM/min and 0.01647 mM/min"}, {"measurement": "initial velocity vo", "setting": "wt-HVGH TtIleRS2; c(mupirocin) 0.5 μM, c(ATP) 5.0 mM", "value": "0.02341 mM/min and 0.024 mM/min and 0.02727 mM/min"}, {"measurement": "initial velocity vo", "setting": "wt-HVGH TtIleRS2; c(mupirocin) 0.5 μM, c(ATP) 10.0 mM", "value": "0.03666 mM/min and 0.03855 mM/min and 0.03894 mM/min"}, {"measurement": "initial velocity vo", "setting": "wt-HVGH TtIleRS2; c(mupirocin) 0.5 μM, c(ATP) 15.0 mM", "value": "0.04188 mM/min and 0.04379 mM/min and 0.0434 mM/min"}, {"measurement": "initial velocity vo", "setting": "wt-HVGH TtIleRS2; c(mupirocin) 0.5 μM, c(Ile) 5.0 μM", "value": "0.00349 mM/min and 0.00358 mM/min and 0.00422 mM/min"}, {"measurement": "initial velocity vo", "setting": "wt-HVGH TtIleRS2; c(mupirocin) 0.5 μM, c(Ile) 15.0 μM", "value": "0.01037 mM/min and 0.01135 mM/min and 0.01134 mM/min"}, {"measurement": "initial velocity vo", "setting": "wt-HVGH TtIleRS2; c(mupirocin) 1.0 μM, c(ATP) 1.0 mM", "value": "0.00403 mM/min and 0.00377 mM/min and 0.00474 mM/min"}, {"measurement": "initial velocity vo", "setting": "wt-HVGH TtIleRS2; c(mupirocin) 1.0 μM, c(ATP) 2.5 mM", "value": "0.00961 mM/min and 0.01146 mM/min and 0.01193 mM/min"}, {"measurement": "initial velocity vo", "setting": "wt-HVGH TtIleRS2; c(mupirocin) 1.0 μM, c(ATP) 5.0 mM", "value": "0.01986 mM/min and 0.02034 mM/min and 0.01615 mM/min"}, {"measurement": "initial velocity vo", "setting": "wt-HVGH TtIleRS2; c(mupirocin) 1.0 μM, c(ATP) 10.0 mM", "value": "0.02901 mM/min and 0.02831 mM/min and 0.02535 mM/min"}, {"measurement": "initial velocity vo", "setting": "wt-HVGH TtIleRS2; c(mupirocin) 1.0 μM, c(ATP) 15.0 mM", "value": "0.03565 mM/min and 0.03315 mM/min and 0.03301 mM/min"}, {"measurement": "initial velocity vo", "setting": "wt-HVGH TtIleRS2; c(mupirocin) 1.0 μM, c(Ile) 5.0 μM", "value": "0.0018 mM/min and 0.00161 mM/min and 0.00213 mM/min"}, {"measurement": "initial velocity vo", "setting": "wt-HVGH TtIleRS2; c(mupirocin) 1.0 μM, c(Ile) 15.0 μM", "value": "0.00627 mM/min and 0.00604 mM/min and 0.00608 mM/min"}, {"measurement": "initial velocity vo", "setting": "wt-HVGH TtIleRS2; c(mupirocin) 1.0 μM, c(Ile) 50.0 μM", "value": "0.01613 mM/min and 0.01634 mM/min and 0.01627 mM/min"}, {"measurement": "initial velocity vo", "setting": "wt-HVGH TtIleRS2; c(mupirocin) 2.5 μM, c(ATP) 2.5 mM", "value": "0.00405 mM/min and 0.00296 mM/min and 0.00525 mM/min"}, {"measurement": "initial velocity vo", "setting": "wt-HVGH TtIleRS2; c(mupirocin) 2.5 μM, c(ATP) 5.0 mM", "value": "0.00797 mM/min and 0.00918 mM/min and 0.01147 mM/min"}, {"measurement": "initial velocity vo", "setting": "wt-HVGH TtIleRS2; c(mupirocin) 2.5 μM, c(ATP) 10.0 mM", "value": "0.01533 mM/min and 0.01708 mM/min and 0.0168 mM/min"}, {"measurement": "initial velocity vo", "setting": "wt-HVGH TtIleRS2; c(mupirocin) 2.5 μM, c(ATP) 15.0 mM", "value": "0.02441 mM/min and 0.0241 mM/min and 0.02037 mM/min"}, {"measurement": "initial velocity vo", "setting": "wt-HVGH TtIleRS2; c(mupirocin) 5.0 μM, c(ATP) 2.5 mM", "value": "0.00309 mM/min and 0.0024 mM/min and 0.0026 mM/min"}, {"measurement": "initial velocity vo", "setting": "wt-HVGH TtIleRS2; c(mupirocin) 5.0 μM, c(ATP) 5.0 mM", "value": "0.00527 mM/min and 0.00709 mM/min and 0.00659 mM/min"}, {"measurement": "initial velocity vo", "setting": "wt-HVGH TtIleRS2; c(mupirocin) 5.0 μM, c(ATP) 10.0 mM", "value": "0.01002 mM/min and 0.00944 mM/min and 0.01333 mM/min"}, {"measurement": "initial velocity vo", "setting": "wt-HVGH TtIleRS2; c(mupirocin) 5.0 μM, c(ATP) 15.0 mM", "value": "0.01409 mM/min and 0.01329 mM/min"}, {"measurement": "initial velocity vo", "setting": "wt-HVGH TtIleRS2; c(mupirocin) 5.0 μM, c(Ile) 5.0 μM", "value": "0.00137 mM/min and 0.00102 mM/min and 0.00071 mM/min"}, {"measurement": "initial velocity vo", "setting": "wt-HVGH TtIleRS2; c(mupirocin) 5.0 μM, c(Ile) 15.0 μM", "value": "0.00213 mM/min and 0.00316 mM/min and 0.00307 mM/min"}]}]}
